Measurements published in ChEMBL document CHEMBL5030557, “Tandem Repeat of a Short Human Chemerin-Derived Peptide and Its Nontoxic d-Lysine-Containing Enantiomer Display Broad-Spectrum Antimicrobial and Antitubercular Activities” (J Med Chem, 2021).

Tested on: Mycobacterium tuberculosis variant bovis
Assay: Anti-mycobacterial activity against Mycobacterium bovis assessed as growth inhibition at 16.13 uM relative to control
Type: functional

CC(C)C[C@H](NC(=O)[C@H](CCCNC(=N)N)NC(=O)CNC(=O)[C@H](CC(C)C)NC(=O)[C@@H](NC(=O)[C@@H](CCCCN)NC(=O)[C@@H](NC(=O)[C@H](CC(C)C)NC(=O)[C@H](CCCNC(=N)N)NC(=O)CNC(=O)[C@H](CC(C)C)NC(=O)[C@@H](NC(=O)[C@@H](N)CCCCN)C(C)C)C(C)C)C(C)C)C(=O)N[C@H](C(N)=O)C(C)C
inhibition at 16.13 µM: 95%

CC(C)C[C@H](NC(=O)[C@H](CCCNC(=N)N)NC(=O)CNC(=O)[C@H](CC(C)C)NC(=O)[C@@H](NC(=O)[C@H](CCCCN)NC(=O)[C@@H](NC(=O)[C@H](CC(C)C)NC(=O)[C@H](CCCNC(=N)N)NC(=O)CNC(=O)[C@H](CC(C)C)NC(=O)[C@@H](NC(=O)[C@@H](N)CCCCN)C(C)C)C(C)C)C(C)C)C(=O)N[C@H](C(N)=O)C(C)C
inhibition at 16.13 µM: 80%
